Assay results as given in article PMC5428354, “Screening of a natural compound library identifies emodin, a natural compound from Rheum palmatum Linn that inhibits DPP4” (PeerJ, 2017).
Like-named read-outs stand apart in the source and are kept apart here.

Target: DPP4 (Homo sapiens, UniProt P27487)
Assay: DPP4 activity assay (DPP4 inhibitor screening assay kit, Cayman);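 further: fluorescence read at excitation 360 nm and emission 460 nm after the enzyme reaction ran 30 min at 37 °C in a 96-well plate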
Type: biochemical
Design: purchased Cayman Chemical, Ann Arbor, MI, USA
Details: for remaining activity at 10 µM: 0.5 h
[1] = 10 µM, control mean 100.0, Figure 1A raw data, read-out: DPP4 activity in library screen, Exp 1
[2] = 10 µM, control mean 100.0, Figure 1A raw data, read-out: DPP4 activity in library screen, Exp 2
[3] = 10 µM, control mean 100.0, Figure 1A raw data, read-out: DPP4 activity in library screen, Exp 3
[4] = 10 µM, control mean 100.0, mean of Exp 1-3, read-out: DPP4 activity in library screen, Mean
[5] = 10 µM, control mean 100.0, Figure 1A raw data
[6] = 10 µM, control mean 100.0, mean of Exp 1-3

DPP4, sequence (P27487 whole entry): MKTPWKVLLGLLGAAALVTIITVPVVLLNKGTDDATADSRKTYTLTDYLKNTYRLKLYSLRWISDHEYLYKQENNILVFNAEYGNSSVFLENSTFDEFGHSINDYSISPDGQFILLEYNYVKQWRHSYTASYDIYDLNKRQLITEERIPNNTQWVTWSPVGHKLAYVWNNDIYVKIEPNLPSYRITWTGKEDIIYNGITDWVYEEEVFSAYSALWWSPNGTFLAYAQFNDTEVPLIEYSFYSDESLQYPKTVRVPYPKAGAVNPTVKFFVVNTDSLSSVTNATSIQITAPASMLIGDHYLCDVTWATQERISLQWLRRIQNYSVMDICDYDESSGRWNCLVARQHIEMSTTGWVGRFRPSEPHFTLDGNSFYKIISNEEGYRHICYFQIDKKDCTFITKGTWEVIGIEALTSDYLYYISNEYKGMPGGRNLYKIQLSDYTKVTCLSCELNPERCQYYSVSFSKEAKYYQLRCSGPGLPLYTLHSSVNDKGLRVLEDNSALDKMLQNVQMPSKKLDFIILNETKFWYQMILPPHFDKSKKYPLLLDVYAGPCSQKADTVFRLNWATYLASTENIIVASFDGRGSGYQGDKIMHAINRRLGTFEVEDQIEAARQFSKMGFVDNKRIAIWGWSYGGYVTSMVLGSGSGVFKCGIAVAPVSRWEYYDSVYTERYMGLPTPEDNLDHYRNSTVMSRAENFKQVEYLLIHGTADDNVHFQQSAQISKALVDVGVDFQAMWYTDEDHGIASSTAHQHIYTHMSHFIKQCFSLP

| Compound | remaining activity at 10 µM [1] [%] | remaining activity at 10 µM [2] [%] | remaining activity at 10 µM [3] [%] | remaining activity at 10 µM [4] [%] | further results |
| --- | --- | --- | --- | --- | --- |
| N[C@@H](Cc1c[nH]c2ccc(O)cc12)C(=O)O [5-hydroxytryptophan (5-HTP), 5-hydroxytryptophan] | 93.3 | 82.6 | 90.6 | 88.8 | – |
| Cl.N=c1ccn2c(n1)O[C@H]1[C@H](O)[C@@H](CO)O[C@H]12 [Cyclocytidine HCl] | – | – | – | – | DPP4 activity in library screen, Exp 1 [5]: 110.3; DPP4 activity in library screen, Exp 2 [5]: 95; DPP4 activity in library screen, Exp 3 [5]: 97.8; DPP4 activity in library screen, Mean [6]: 101.0 |
| O=c1cccc2n1C[C@@H]1CNC[C@H]2C1 [Cytisine] | – | – | – | – | remaining activity at 10 µM (read-out: DPP4 activity in library screen, Exp 1): 90.3%; remaining activity at 10 µM (read-out: DPP4 activity in library screen, Exp 2): 91%; remaining activity at 10 µM (read-out: DPP4 activity in library screen, Exp 3): 109%; remaining activity at 10 µM (read-out: DPP4 activity in library screen, Mean): 96.7% |
| C/C=C1/[C@H](O[C@@H]2O[C@H](CO)[C@@H](O)[C@H](O)[C@H]2O)OC=C(C(=O)OC)[C@H]1CC(=O)OCCc1ccc(O)c(O)c1 [Oleuropein] | 117 | 101 | 93.4 | 104 | – |
| C[C@@H]1O[C@@H](O)[C@H](O)[C@H](O)[C@H]1O.O [L-(+)-Rhamnose Monohydrate] | – | – | – | – | DPP4 activity in library screen, Exp 1 [5]: 92.8; DPP4 activity in library screen, Exp 2 [5]: 91.1; DPP4 activity in library screen, Exp 3 [5]: 93; DPP4 activity in library screen, Mean [6]: 92.3 |
| Methyl-Hesperidin | – | – | – | – | DPP4 activity in library screen, Exp 1 [5]: 98.7; DPP4 activity in library screen, Exp 2 [5]: 101.2; DPP4 activity in library screen, Exp 3 [5]: 74.4; DPP4 activity in library screen, Mean [6]: 91.4 |
| CC(=O)c1c(O)c(C)c(O)c2c1OC1=CC(=O)C(C(C)=O)C(=O)C12C (single isomer, unassigned; (+)) [(+)-Usniacin] | – | – | – | – | DPP4 activity in library screen, Exp 1 [5]: 88.7; DPP4 activity in library screen, Exp 2 [5]: 90.4; DPP4 activity in library screen, Exp 3 [5]: 89.7; DPP4 activity in library screen, Mean [6]: 89.6 |
| COc1cc(C2Oc3cc([C@H]4Oc5cc(O)cc(O)c5C(=O)[C@@H]4O)ccc3OC2CO)ccc1O (stereo partly drawn) [Silibinin] | 65.1 | 76.8 | 67.3 | 69.7 | – |
| C[C@H]1[C@H](OC(=O)CCC(=O)O)O[C@@H]2O[C@@]3(C)CC[C@H]4[C@H](C)CC[C@@H]1[C@@]24OO3 [Artesunate] | 95.1 | 99 | 87 | 93.7 | – |
| C=CCc1ccc(O)c(-c2cc(CC=C)ccc2O)c1 [Magnolol] | 97.6 | 108 | 83.9 | 96.4 | – |
| O=c1c2ccccc2nc2n1CCc1c-2[nH]c2ccccc12 [Rutaecarpine] | 71.3 | 78.6 | 71.4 | 73.8 | – |
| C[C@H]1[C@H](C)CC[C@]2(C(=O)O)CC[C@]3(C)C(=CC[C@@H]4[C@@]5(C)C[C@@H](O)[C@H](O)[C@@](C)(CO)[C@@H]5CC[C@]43C)[C@H]12 [Asiatic Acid] | 83.3 | 65.3 | 130 | 93 | – |
| O=C(/C=C/C=C/c1ccc2c(c1)OCO2)N1CCCCC1 [Piperine] | 67.7 | 60.2 | 77.8 | 68.6 | – |
| C[C@H](CCC(=O)O)[C@H]1CC[C@H]2[C@@H]3C[C@H](O)[C@@H]4C[C@H](O)CC[C@]4(C)[C@H]3CC[C@]12C [Hyodeoxycholic acid (HDCA), Hyodeoxycholic acid] | 96.6 | 94.7 | 96.2 | 95.8 | – |
| C=C1C[C@@]2(O)O[C@@]3(C[C@H]2C(C)C)[C@@H](C)CC[C@@H]13 [Curcumol] | – | – | – | – | DPP4 activity in library screen, Exp 1 [5]: 100.6; DPP4 activity in library screen, Exp 2 [5]: 99.6; DPP4 activity in library screen, Exp 3 [5]: 110.6; DPP4 activity in library screen, Mean [6]: 103.6 |
| N#C[C@H](O[C@@H]1O[C@H](CO[C@@H]2O[C@H](CO)[C@@H](O)[C@H](O)[C@H]2O)[C@@H](O)[C@H](O)[C@H]1O)c1ccccc1 [Amygdalin] | 96.2 | 94.7 | 92.1 | 94.3 | – |
| COc1ccc2cc3[n+](cc2c1OC)CCc1cc2c(cc1-3)OCO2.[Cl-] [Berberine HCl] | – | – | – | – | DPP4 activity in library screen, Exp 1 [5]: 52.4; DPP4 activity in library screen, Exp 2 [5]: 58.4; DPP4 activity in library screen, Exp 3 [5]: 54.2; DPP4 activity in library screen, Mean [6]: 55.0 |

| Compound | remaining activity at 10 µM [1] [%] | remaining activity at 10 µM [2] [%] | remaining activity at 10 µM [3] [%] | remaining activity at 10 µM [4] [%] | further results |
| --- | --- | --- | --- | --- | --- |
| COc1cc2c(cc1OC)-c1cc3ccc(OC)c(OC)c3c[n+]1CC2 [Palmatine chloride] | – | – | – | – | remaining activity at 10 µM (read-out: DPP4 activity in library screen, Exp 1, 10 µM, control mean 100.0, Figure 1A raw data): 49.5%; remaining activity at 10 µM (read-out: DPP4 activity in library screen, Exp 2, 10 µM, control mean 100.0, Figure 1A raw data): 48.9%; remaining activity at 10 µM (read-out: DPP4 activity in library screen, Exp 3, 10 µM, control mean 100.0, Figure 1A raw data): 43.9%; remaining activity at 10 µM (read-out: DPP4 activity in library screen, Mean, 10 µM, control mean 100.0, mean of Exp 1-3): 47.4% |
| Cc1coc2c1C(=O)C(=O)c1c-2ccc2c1CCCC2(C)C [Tanshinone IIA] | 50.8 | 56.6 | 69.7 | 59 | – |
| C[C@H](NCc1ccc(OCc2cccc(F)c2)cc1)C(N)=O [Safinamide] | 93.4 | 98.3 | 118 | 103 | – |
| O=c1c(-c2ccc(O)cc2)coc2c([C@@H]3O[C@H](CO)[C@@H](O)[C@H](O)[C@H]3O)c(O)ccc12 [Puerarin] | 94.4 | 98 | 93.8 | 95.4 | – |
| O=C(/C=C/c1ccc(O)c(O)c1)O[C@@H]1C[C@](O)(C(=O)O)C[C@@H](O)[C@H]1O [Chlorogenic Acid] | 71.3 | 81.8 | 102 | 84.9 | – |
| O=c1[nH]cnc2c1ncn2[C@@H]1O[C@H](CO)[C@@H](O)[C@H]1O [Inosine] | 95.4 | 94.1 | 102 | 97.2 | – |
| CC1(C)[C@@H](O[C@H]2O[C@H](C(=O)O)[C@@H](O)[C@H](O)[C@H]2O[C@@H]2O[C@H](C(=O)O)[C@@H](O)[C@H](O)[C@H]2O)CC[C@]2(C)[C@H]3C(=O)C=C4[C@@H]5C[C@@](C)(C(=O)O)CC[C@]5(C)CC[C@@]4(C)[C@]3(C)CC[C@@H]12 [Ammonium Glycyrrhizinate] | – | – | – | – | DPP4 activity in library screen, Exp 1 [5]: 83.3; DPP4 activity in library screen, Exp 2 [5]: 106.3; DPP4 activity in library screen, Exp 3 [5]: 81.6; DPP4 activity in library screen, Mean [6]: 90.4 |
| CC1(C)[C@@H](O[C@H]2O[C@H](C(=O)O)[C@@H](O)[C@H](O)[C@H]2O[C@@H]2O[C@H](C(=O)O)[C@@H](O)[C@H](O)[C@H]2O)CC[C@]2(C)[C@H]3C(=O)C=C4[C@@H]5C[C@@](C)(C(=O)O)CC[C@]5(C)CC[C@@]4(C)[C@]3(C)CC[C@@H]12 [Glycyrrhizin (Glycyrrhizic Acid), Glycyrrhizin] | 137 | 78.9 | 65.2 | 93.8 | – |
| O=C(O)CCCc1c[nH]c2ccccc12 [3-Indolebutyric acid (IBA), 3-Indolebutyric acid] | 92 | 93.9 | 107 | 97.5 | – |
| C=C1C(=O)O[C@H]2[C@H]1CC/C(C)=C/CC[C@@]1(C)O[C@@H]21 [(-)-Parthenolide] | – | – | – | – | DPP4 activity in library screen, Exp 1 [5]: 73.3; DPP4 activity in library screen, Exp 2 [5]: 84.6; DPP4 activity in library screen, Exp 3 [5]: 113.2; DPP4 activity in library screen, Mean [6]: 90.4 |
| O=[N+]([O-])c1ncc[nH]1 [Azomycin] | 74.2 | 78.5 | 76.2 | 76.3 | – |
| O=C(O)c1cc(=O)[nH]c(=O)[nH]1 [Orotic acid (6-Carboxyuracil), Orotic acid] | 83.5 | 88 | 95.5 | 89 | – |
| C[C@@H]1O[C@@H](OC[C@H]2O[C@@H](Oc3c(-c4ccc(OCCO)c(OCCO)c4)oc4cc(OCCO)cc(O)c4c3=O)[C@H](O)[C@@H](O)[C@@H]2O)[C@H](O)[C@H](O)[C@H]1O [Troxerutin] | 69.8 | 62.2 | 57.2 | 63.1 | – |
| O=c1c(O)c(-c2ccc(O)c(O)c2)oc2cc(O)cc(O)c12 [Quercetin] | 62.7 | 62.1 | 72.1 | 65.6 | – |
| O=C(CCc1ccc(O)cc1)c1c(O)cc(O)cc1O[C@@H]1O[C@H](CO)[C@@H](O)[C@H](O)[C@H]1O [Phlorizin] | 63.2 | 86.5 | 114 | 87.8 | – |
| CN(C)Cc1c[nH]c2ccccc12 [Gramine] | 97.6 | 97.4 | 88.2 | 94.4 | – |
